Results taken from publication PMC10175918 (Communications Biology, 2023).
Like-named read-outs stand apart in the source and are kept apart here.

Key:
Assay in all cases: TGFα-shedding assay-based GPCR screening with chimeric Gα subunit proteins
Type in all cases: cell-based
348 GPCRs [1] = molecular target: T1, 348 GPCRs (Homo sapiens, UniProt O00590); settings: 10µM, Favipiravir 100μM
T1 construct: expressed in transfected cells; host or cells: HEK293A
T1 sequence (O00590 1-384): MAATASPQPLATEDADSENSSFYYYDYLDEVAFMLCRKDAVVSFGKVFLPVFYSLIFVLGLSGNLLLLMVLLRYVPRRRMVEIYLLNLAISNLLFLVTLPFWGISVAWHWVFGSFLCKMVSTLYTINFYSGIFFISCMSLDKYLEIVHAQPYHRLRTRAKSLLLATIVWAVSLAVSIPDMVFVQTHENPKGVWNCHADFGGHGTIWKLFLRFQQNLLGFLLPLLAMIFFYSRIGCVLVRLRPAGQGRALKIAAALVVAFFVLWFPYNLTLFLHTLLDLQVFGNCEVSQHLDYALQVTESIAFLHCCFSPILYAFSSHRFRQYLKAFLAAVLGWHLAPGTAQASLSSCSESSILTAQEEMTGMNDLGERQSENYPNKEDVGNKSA

348 GPCRs [2] = molecular target: 348 GPCRs (Homo sapiens, UniProt P25103); settings: 10µM, Favipiravir 100μM
Chain of 348 GPCRs (Homo sapiens, UniProt P25103) (P25103 whole entry): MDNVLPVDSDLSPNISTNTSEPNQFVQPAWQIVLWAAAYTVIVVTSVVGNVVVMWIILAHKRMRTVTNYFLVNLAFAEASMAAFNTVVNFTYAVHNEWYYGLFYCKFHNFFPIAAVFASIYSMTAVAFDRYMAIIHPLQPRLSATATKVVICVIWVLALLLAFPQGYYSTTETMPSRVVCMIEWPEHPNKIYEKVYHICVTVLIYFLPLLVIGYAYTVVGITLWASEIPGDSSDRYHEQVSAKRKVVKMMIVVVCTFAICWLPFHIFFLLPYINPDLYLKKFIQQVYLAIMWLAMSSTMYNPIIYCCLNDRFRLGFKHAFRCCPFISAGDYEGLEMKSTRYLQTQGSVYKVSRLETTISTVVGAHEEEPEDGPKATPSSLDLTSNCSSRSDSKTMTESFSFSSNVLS

348 GPCRs [3] = molecular target: T2, 348 GPCRs (Homo sapiens, UniProt P30939); settings: 5-HT1F (5-hydroxytryptamine receptor 1F); 10µM, Favipiravir 100μM
T2 construct: expressed in transfected cells; host or cells: HEK293A
T2 sequence (P30939 1-366): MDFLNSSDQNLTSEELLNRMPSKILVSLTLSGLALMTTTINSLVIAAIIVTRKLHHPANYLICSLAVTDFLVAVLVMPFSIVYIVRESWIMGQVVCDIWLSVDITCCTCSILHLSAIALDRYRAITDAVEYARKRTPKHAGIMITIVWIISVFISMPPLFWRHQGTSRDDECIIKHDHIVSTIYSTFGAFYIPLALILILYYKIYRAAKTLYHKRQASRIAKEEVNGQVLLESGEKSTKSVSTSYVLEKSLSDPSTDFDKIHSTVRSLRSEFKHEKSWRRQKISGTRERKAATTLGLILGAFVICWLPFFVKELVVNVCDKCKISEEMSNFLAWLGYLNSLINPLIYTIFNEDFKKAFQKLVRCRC

348 GPCRs [4] = molecular target: T3, 348 GPCRs (Homo sapiens, UniProt P35367); settings: 10µM, Favipiravir 100μM
T3 construct: expressed in transfected cells; host or cells: HEK293A
T3 sequence (P35367 whole entry): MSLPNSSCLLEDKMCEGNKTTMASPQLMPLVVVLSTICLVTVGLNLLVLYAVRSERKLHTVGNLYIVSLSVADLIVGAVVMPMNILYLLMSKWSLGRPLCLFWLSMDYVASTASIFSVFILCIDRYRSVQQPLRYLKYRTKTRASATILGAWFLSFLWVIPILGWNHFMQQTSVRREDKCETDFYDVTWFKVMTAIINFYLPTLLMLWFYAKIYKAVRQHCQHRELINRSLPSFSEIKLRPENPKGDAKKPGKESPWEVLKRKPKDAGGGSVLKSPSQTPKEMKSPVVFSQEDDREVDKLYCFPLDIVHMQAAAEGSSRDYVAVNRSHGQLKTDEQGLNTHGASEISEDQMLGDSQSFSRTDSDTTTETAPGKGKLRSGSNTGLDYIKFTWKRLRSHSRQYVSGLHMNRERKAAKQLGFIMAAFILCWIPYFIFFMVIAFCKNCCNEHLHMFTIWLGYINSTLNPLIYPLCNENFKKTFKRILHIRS

348 GPCRs [5] = molecular target: T4, 348 GPCRs (Homo sapiens, UniProt P35408); settings: 10µM, Favipiravir 100μM
T4 construct: expressed in transfected cells; host or cells: HEK293A
T4 sequence (P35408 whole entry): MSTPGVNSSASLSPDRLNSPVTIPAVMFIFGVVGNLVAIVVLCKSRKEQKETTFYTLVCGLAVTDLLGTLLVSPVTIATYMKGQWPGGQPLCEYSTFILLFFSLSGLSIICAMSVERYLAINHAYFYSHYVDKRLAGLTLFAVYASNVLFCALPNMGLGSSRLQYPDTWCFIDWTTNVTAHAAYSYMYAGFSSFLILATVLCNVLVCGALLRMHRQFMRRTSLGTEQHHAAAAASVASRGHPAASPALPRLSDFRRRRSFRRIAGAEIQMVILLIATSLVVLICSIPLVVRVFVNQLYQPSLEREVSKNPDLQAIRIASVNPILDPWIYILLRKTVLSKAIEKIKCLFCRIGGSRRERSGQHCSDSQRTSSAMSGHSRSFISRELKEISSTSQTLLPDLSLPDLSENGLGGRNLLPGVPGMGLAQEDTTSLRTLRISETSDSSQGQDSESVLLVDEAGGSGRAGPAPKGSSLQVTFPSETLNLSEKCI

348 GPCRs [6] = molecular target: T5, 348 GPCRs (Homo sapiens, UniProt P43119); settings: 10µM, Favipiravir 100μM
T5 construct: expressed in transfected cells; host or cells: HEK293A
T5 sequence (P43119 whole entry): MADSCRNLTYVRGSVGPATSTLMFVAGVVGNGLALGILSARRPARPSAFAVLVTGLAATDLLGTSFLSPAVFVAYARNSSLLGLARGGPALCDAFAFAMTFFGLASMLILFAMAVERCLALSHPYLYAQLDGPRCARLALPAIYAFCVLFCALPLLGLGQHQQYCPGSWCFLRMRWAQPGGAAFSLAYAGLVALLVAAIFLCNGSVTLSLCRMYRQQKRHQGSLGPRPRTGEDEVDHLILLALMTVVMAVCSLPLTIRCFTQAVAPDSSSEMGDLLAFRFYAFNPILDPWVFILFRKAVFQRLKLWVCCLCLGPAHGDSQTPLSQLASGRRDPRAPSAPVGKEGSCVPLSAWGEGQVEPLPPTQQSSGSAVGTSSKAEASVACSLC

348 GPCRs [7] = molecular target: T6, 348 GPCRs (Homo sapiens, UniProt P47871); settings: 10µM, Favipiravir 100μM
T6 construct: expressed in transfected cells; host or cells: HEK293A
T6 sequence (P47871 26-477): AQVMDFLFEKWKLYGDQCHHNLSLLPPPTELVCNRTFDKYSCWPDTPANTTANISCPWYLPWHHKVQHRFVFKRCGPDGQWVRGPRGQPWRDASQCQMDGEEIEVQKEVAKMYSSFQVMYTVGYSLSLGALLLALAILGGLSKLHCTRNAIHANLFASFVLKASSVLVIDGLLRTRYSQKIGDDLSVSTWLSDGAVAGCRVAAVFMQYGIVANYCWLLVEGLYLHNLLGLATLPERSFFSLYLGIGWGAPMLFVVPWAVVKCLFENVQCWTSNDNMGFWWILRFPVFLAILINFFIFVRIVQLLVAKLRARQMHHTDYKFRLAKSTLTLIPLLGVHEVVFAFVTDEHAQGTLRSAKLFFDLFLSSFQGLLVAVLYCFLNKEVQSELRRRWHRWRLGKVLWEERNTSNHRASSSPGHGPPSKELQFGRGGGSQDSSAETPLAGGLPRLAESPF

348 GPCRs [8] = molecular target: T7, 348 GPCRs (Homo sapiens, UniProt Q02643); settings: 10µM, Favipiravir 100μM
T7 construct: expressed in transfected cells; host or cells: HEK293A
T7 sequence (Q02643 23-423): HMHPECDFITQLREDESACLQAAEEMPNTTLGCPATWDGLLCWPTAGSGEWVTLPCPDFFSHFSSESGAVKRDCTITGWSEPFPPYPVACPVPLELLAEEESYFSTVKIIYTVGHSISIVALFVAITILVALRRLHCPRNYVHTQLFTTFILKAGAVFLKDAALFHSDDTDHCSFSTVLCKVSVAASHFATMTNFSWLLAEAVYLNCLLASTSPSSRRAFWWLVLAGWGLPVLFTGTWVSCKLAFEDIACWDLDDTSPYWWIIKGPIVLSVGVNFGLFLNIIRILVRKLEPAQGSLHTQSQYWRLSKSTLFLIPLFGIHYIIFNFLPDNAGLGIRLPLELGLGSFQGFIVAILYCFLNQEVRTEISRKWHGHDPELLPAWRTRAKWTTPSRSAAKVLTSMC

348 GPCRs [9] = molecular target: T8, 348 GPCRs (Homo sapiens, UniProt Q14330); settings: GPR18 (G protein-coupled receptor 18); 10µM, Favipiravir 100μM
T8 construct: expressed in transfected cells; host or cells: HEK293A
T8 sequence (Q14330 1-331): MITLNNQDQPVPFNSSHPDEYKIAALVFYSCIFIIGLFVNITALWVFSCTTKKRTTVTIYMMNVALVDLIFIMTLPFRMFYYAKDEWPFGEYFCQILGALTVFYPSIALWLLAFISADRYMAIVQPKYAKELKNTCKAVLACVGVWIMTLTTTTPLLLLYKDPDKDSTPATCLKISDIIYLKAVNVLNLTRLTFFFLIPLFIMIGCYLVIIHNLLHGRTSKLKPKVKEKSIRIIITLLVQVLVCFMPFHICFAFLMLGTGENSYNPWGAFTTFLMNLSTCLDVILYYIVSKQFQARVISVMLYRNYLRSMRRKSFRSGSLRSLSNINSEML

348 GPCRs [10] = molecular target: T9, 348 GPCRs (Homo sapiens, UniProt Q969V1); settings: 10µM, Favipiravir 100μM
T9 construct: expressed in transfected cells; host or cells: HEK293A
T9 sequence (Q969V1 whole entry): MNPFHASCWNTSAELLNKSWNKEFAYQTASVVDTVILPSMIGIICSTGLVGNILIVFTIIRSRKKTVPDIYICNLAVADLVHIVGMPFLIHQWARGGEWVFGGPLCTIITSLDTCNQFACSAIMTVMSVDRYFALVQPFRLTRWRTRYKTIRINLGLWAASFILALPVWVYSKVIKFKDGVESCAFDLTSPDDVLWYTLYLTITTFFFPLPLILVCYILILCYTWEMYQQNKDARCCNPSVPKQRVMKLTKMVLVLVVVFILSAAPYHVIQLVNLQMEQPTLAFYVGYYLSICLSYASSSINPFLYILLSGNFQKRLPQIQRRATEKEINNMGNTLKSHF

348 GPCRs [11] = molecular target: T10, 348 GPCRs (Homo sapiens, UniProt Q99788); settings: GPCR CMKLR1 (chemerin chemokine-like receptor 1)
T10 construct: expressed in transfected cells; host or cells: HEK293A
T10 sequence (Q99788 1-373): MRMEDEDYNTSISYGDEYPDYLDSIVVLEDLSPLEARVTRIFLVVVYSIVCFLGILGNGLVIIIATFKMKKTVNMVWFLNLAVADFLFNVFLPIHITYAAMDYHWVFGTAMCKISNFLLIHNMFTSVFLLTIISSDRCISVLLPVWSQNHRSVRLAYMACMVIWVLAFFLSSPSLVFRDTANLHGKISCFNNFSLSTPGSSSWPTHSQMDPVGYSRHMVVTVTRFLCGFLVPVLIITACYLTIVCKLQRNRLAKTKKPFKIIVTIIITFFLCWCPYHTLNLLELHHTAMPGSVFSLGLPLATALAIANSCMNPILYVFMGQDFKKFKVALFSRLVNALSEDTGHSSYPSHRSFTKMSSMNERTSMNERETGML

[12] = CCBP2 (chemokine binding protein 2), read-out: % GPCR activation compared to TPA
[13] = NK1 (tachykinin receptor 1), read-out: % GPCR activation compared to TPA
[14] = H1 (histamine receptor H1), read-out: % GPCR activation compared to TPA
[15] = EP4 (prostaglandin E receptor 4), read-out: % GPCR activation compared to TPA
[16] = IP (prostaglandin I2 (prostacyclin) receptor), read-out: % GPCR activation compared to TPA
[17] = GCGR (glucagon receptor), read-out: % GPCR activation compared to TPA
[18] = GHRHR (growth hormone releasing hormone receptor), read-out: % GPCR activation compared to TPA
[19] = MCHR2 (melanin concentrating hormone receptor 2), read-out: % GPCR activation compared to TPA
[20] = read-out: % GPCR activation compared to TPA, CCBP2 (chemokine binding protein 2)
[21] = read-out: % GPCR activation compared to TPA, NK1 (tachykinin receptor 1)
[22] = read-out: % GPCR activation compared to TPA, H1 (histamine receptor H1)
[23] = read-out: % GPCR activation compared to TPA, EP4 (prostaglandin E receptor 4)
[24] = read-out: % GPCR activation compared to TPA, IP (prostaglandin I2 (prostacyclin) receptor)
[25] = read-out: % GPCR activation compared to TPA, GCGR (glucagon receptor)
[26] = read-out: % GPCR activation compared to TPA, GHRHR (growth hormone releasing hormone receptor)
[27] = read-out: % GPCR activation compared to TPA, MCHR2 (melanin concentrating hormone receptor 2)

Structure (SMILES)	activation at 100 µM (348 GPCRs [1]; [12])	activation at 10 µM (348 GPCRs [2]; [13])	% GPCR activation compared to TPA (348 GPCRs [3])	activation at 10 µM (348 GPCRs [4]; [14])	activation at 10 µM (348 GPCRs [5]; [15])	activation at 100 µM (348 GPCRs [6]; [16])	activation at 100 µM (348 GPCRs [7]; [17])	activation at 100 µM (348 GPCRs [8]; [18])	% GPCR activation compared to TPA (348 GPCRs [9])	activation at 10 µM (348 GPCRs [10]; [19])	% GPCR activation compared to TPA (348 GPCRs [11]; 100μM)	% GPCR activation compared to TPA (348 GPCRs [11]; 10µM)	activation at 100 µM (348 GPCRs [1]; [20])	activation at 10 µM (348 GPCRs [2]; [21])	activation at 10 µM (348 GPCRs [4]; [22])	activation at 10 µM (348 GPCRs [5]; [23])	activation at 100 µM (348 GPCRs [6]; [24])	activation at 100 µM (348 GPCRs [7]; [25])	activation at 100 µM (348 GPCRs [8]; [26])	activation at 10 µM (348 GPCRs [10]; [27])
CC(C)C(=O)OC[C@H]1O[C@@H](n2ccc(NO)nc2=O)[C@H](O)[C@@H]1O [molnupiravir]	-0.55%	1.66%	0.7188%	-2.24%	0.931%	-1.76%	0.495%	-0.966%	-5.385%	-3.92%		-0.3127%								
CCC(CC)COC(=O)[C@H](C)N[P@](=O)(OC[C@H]1O[C@@](C#N)(c2ccc3c(N)ncnn23)[C@H](O)[C@@H]1O)Oc1ccccc1 [remdesivir]			-2.148%						1.118%			-1.376%	-7.69%	-0.867%	-3.69%	4.74%	-0.107%	2.91%	5.92%	-3.7%
CC(C)OC(=O)[C@H](C)N[P@](=O)(OC[C@H]1O[C@@H](n2ccc(=O)[nH]c2=O)[C@](C)(F)[C@@H]1O)Oc1ccccc1 [sofosbuvir]			-0.8157%						-3.042%			-0.9389%	-0.681%	-1.29%	-0.312%	0.58%	-1.51%	-0.806%	-2.19%	-1.19%

Further lines, with some results ahead:

activation at 100 µM (348 GPCRs [1]; [12])	activation at 10 µM (348 GPCRs [2]; [13])	% GPCR activation compared to TPA (348 GPCRs [3])	activation at 10 µM (348 GPCRs [4]; [14])	activation at 10 µM (348 GPCRs [5]; [15])	activation at 100 µM (348 GPCRs [6]; [16])	activation at 100 µM (348 GPCRs [7]; [17])	activation at 100 µM (348 GPCRs [8]; [18])	% GPCR activation compared to TPA (348 GPCRs [9])	activation at 10 µM (348 GPCRs [10]; [19])	% GPCR activation compared to TPA (348 GPCRs [11]; 100μM)	Structure (SMILES)	% GPCR activation compared to TPA (348 GPCRs [11]; 10µM)	activation at 100 µM (348 GPCRs [1]; [20])	activation at 10 µM (348 GPCRs [2]; [21])	activation at 10 µM (348 GPCRs [4]; [22])	activation at 10 µM (348 GPCRs [5]; [23])	activation at 100 µM (348 GPCRs [6]; [24])	activation at 100 µM (348 GPCRs [7]; [25])	activation at 100 µM (348 GPCRs [8]; [26])	activation at 10 µM (348 GPCRs [10]; [27])
-3.26%	-0.668%	0.3563%	-5.47%	-2.87%	-1.08%	0.277%	1.38%	2.081%	-0.458%		N#C[C@@]1(c2ccc3c(N)ncnn23)O[C@H](CO)[C@@H](O)[C@H]1O [GS441524]	-4.934%								
-6.14%	-3.44%	1.629%	0.654%	-1.55%	-2.05%	2.23%	6.96%	-1%	-2.23%	2.983%	NC(=O)c1nc(F)cnc1O [favipiravir, 6-fluoro-3-hydroxy-2-pyrazinecarboxamide]									
